Our source for the IC50 values is patent US12516054B2, “Pyrazolo[1,5-a]pyridine derivatives, preparation method therefor and use thereof” (SHANGHAI DAIDAI INVESTMENT CONSULTING CO., LTD, priority 2019, dated 2026).

For test [1], the system named is TT cells. The test can be described thus: Inhibition of proliferation of tumor cells with abnormal RET (TT cells), CellTiter-Glo. In kind it is cell-based. Particulars: 192 h, TT cells (human MTC, RET C634W), incubated 8 d, read-out: IC50 for inhibition on TT cell proliferation. As to the method:
The following method was used to determine the inhibitory activity of the preferred compound of the present disclosure on the proliferation of TT cells in vitro. TT cells were a human medullary thyroid cancer (MTC) cell line, including the RET C634W mutation. The cell line was purchased from the American ATCC (Cat. No. ATCC® CRL-1803). The cells were cultivated at 37° C. and 5% CO2 with the Ham's F-12K (Kaighn's) medium (purchased from Thermofisher, Gibco, Cat. No. 21127022) that was supplemented with 10% fetal bovine serum (FBS, purchased from Thermofisher, Gibco, Cat. No. 12483-020), 1× Glutamax (purchased from Thermofisher, Gibco, Cat. No. 35050061), 1× non-essential amino acids (purchased from Thermofisher, Gibco, Cat. No. 11140050), and 1× Pen/Strep antibiotics (purchased from Thermofisher, Gibco, Cat. No. 15140122). Cell viability was determined using CellTiter-Glo® Luminescent Cell Viability Assay (Cat. No. G7573) of Promega.
Brief description of an experimental method: The day before the formal experiment, the cells at the logarithmic growth phase were digested with trypsin (purchased from Thermofisher, Gibco, Cat. No. 25300054), then an appropriate volume of the medium was added to terminate the trypsin reaction, and a resulting mixture was centrifuged at a speed of 1,000 rpm; a resulting supernatant was removed, and fresh medium was added to prepare a cell suspension; and 50 µL of the cell suspension was added to a 96-well cell culture plate (purchased from Corning, Cat. No. 3904) with a cell density of 6,000 cells/well, and then the cell culture plate was incubated overnight at 37° C. and 5% CO2. […] After the incubation was completed, 50 μL of a CellTiter-Glo reagent was added to each well, a resulting mixture was thoroughly shaken and then incubated at room temperature for 10 min in the dark, and then a signal of each well was read on the Envision microplate reader (Perkin Elmer). […]
(In ATP-based viability assays light output follows the ATP content of the culture.)

Test [2] concerns the target GST-hRET kinase (658-1114) (Homo sapiens (Human), UniProt P07949). The test can be described thus: Inhibitory activity on RET enzyme (HTRF KinEASE-TK). Particulars: 0.5 nM RET kinase, 10 μM ATP, read-out: IC50 for inhibition on RET enzyme activity. In kind it is biochemical. The procedure:
2. Reagent Preparation • (1) 1× enzyme reaction buffer: 5× enzyme reaction buffer was diluted with ultrapure water (UPW) at 4:1, and then 25 nM SEB was added. • (2) 5×RET kinase: RET kinase was diluted with 1× enzyme reaction buffer to 2.5 nM. • (3) 5×ATP: ATP was diluted with 1× enzyme reaction buffer to 50 μM. • (4) 5× substrate: TK substrate-biotin was diluted with 1× enzyme reaction buffer to 2,500 nM. • (5) 2.5× compound: The highest final concentration was 2,500 nm, 3-fold gradient dilution was conducted to obtain 10 dilution points, and a final DMSO concentration was 0.4%. • (6) 4× Steptavidin-XL665: Steptavidin-XL665 was diluted with 1× enzyme reaction buffer to […]. 3. Experimental Process • (1) 5×RET kinase was added to a 384-well plate at 2 μl/well (final concentration of 0.5 nM), and a blank group (enzyme reaction buffer) was set as a negative control. • (2) A 2.5× compound solution was added at 4 μl/well, and then the plate was incubated at room temperature for 30 min. A DMSO group was set as a positive control. • (3) 5× substrate (at 2 μl/well, final concentration: 500 nM) and 5×ATP (at 2 μl/well, final concentration: 10 μM) were added to start a reaction, and the reaction was conducted at room temperature for 30 min. • (4) TK Antibody-Cryptate (at 5 μl/well) and 4× Steptavidin-XL665 (at 5 μl/well, final concentration: […]) were added, and the plate was incubated at room temperature for 60 min. • (5) An HTRF signal was read on Envision. 4. Data Analysis
The dosage effect (IC50) of the compound with analyzed using the Graph Pad prism software.

Sequence of GST-hRET kinase (658-1114) (P07949 658-1114): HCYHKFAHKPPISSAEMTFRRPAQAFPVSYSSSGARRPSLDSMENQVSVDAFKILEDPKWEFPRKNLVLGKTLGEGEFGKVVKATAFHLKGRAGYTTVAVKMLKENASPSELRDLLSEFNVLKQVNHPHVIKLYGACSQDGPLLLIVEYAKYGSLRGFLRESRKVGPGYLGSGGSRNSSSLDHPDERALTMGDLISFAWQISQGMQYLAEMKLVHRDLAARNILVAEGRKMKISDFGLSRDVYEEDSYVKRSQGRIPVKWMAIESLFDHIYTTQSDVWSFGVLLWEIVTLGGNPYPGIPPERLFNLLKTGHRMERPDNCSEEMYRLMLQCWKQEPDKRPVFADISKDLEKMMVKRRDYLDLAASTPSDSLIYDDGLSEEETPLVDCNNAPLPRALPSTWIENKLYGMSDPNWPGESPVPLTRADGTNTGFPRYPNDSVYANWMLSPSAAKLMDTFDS

As for `COc1ccc(CN2CC=C(c3ccc(-c4cc(-c5cnn(C)c5)cn5ncc(C#N)c45)cn3)CC2)cn1` [Compound 1, 4-(1′-((6-methoxypyridin-3-yl)methyl)-1′,2′,3′,6′-tetrahydro-[2,4′-bipyridin]-5-yl)-6-(1-methyl-1H-pyrazol-4-yl)pyrazolo[1,5-a]pyridine-3-carbonitrile], the IC50 is 28.9 nM in test [1] and 23.1 nM in test [2].

In the case of `COc1ccc(CN2CC=C(c3ccc(-c4cc(OCC(C)(C)O)cn5ncc(C#N)c45)cn3)CC2)cn1` [Compound 2, 6-(2-hydroxy-2-methylpropoxy)-4-(1′-((6-methoxypyridin-3-yl)methyl)-1′,2′,3′,6′-tetrahydro-[2,4′-bipyridin]-5-yl)pyrazolo[1,5-a]pyridine-3-carbonitrile], the IC50 in test [2] was 25.4 nM.

Consider `COc1ccc(C(=O)N2CC=C(c3ccc(-c4cc(OCC(C)(C)O)cn5ncc(C#N)c45)cn3)CC2)cn1` [Compound 8, 6-(2-hydroxy-2-methylpropoxy)-4-(1′-(6-methoxynicotinoyl)-1′,2′,3′,6′-tetrahydro-[2,4′-bipyridin]-5-yl)pyrazolo[1,5-a]pyridine-3-carbonitrile], for which the IC50 in test [1] came to 87.8 nM.

As for `COc1ccc(CN2C3CC2CN(c2ccc(-c4cc(CCC(C)(C)O)cn5ncc(C#N)c45)cn2)C3)cn1` [Compound 10, 6-(3-hydroxy-3-methylbutyl)-4-(6-(6-((6-methoxypyridin-3-yl)methyl)-3,6-diazabicyclo[3.1.1]heptan-3-yl)pyridin-3-yl)pyrazolo[1,5-a]pyridine-3-carbonitrile], the figures for the IC50 in test [1] and in test [2] were 68.6 nM and 5.6 nM, respectively.
